Consider one molecule from PMC6349869, “The palladacycle complex AJ-5 induces apoptotic cell death while reducing autophagic flux in rhabdomyosarcoma cells” (Cell Death Discovery, 2019).

As a reminder, the IC50 is the midpoint of a concentration-inhibition curve. A higher IC50 goes with lower potency.

What all share (format): cell-based, human
In one assay the test system is SW1353 cells. Description: MTT cell viability assay, SW1353 chondrosarcoma. Conditions: 48 h. As for the experimental part:
(§1) RH30 human aRMS cells (kindly provided by Associate Professor Judith Davie, Southern Illinois University), AX-OH-1 human aRMS and FL-OH-1 human eRMS cells (kindly provided by Professor Stefan Bath, University of Cape Town) were cultured in Roswell Park Memorial Institute Medium (RPMI)-1640 (Sigma Aldrich, Missouri, USA). […] Cell morphology was monitored using an Olympus CKX41 inverted microscope (MSAC Ltd, UK) and imaged with an EVOS™ XL AMEX1000 Core Imaging System (Thermo Fisher Scientific, Massachusetts, USA).
(§2) Cells were seeded in 96-well plates and treated the next day with a range of AJ-5 concentrations (0.1–1.0 μM) or vehicle ([…]) for 48 h. Cell viability was measured using the 3-(4,5-dimethylthiazol-2-yl)-2,5-diphenyl-trazolium bromide (MTT) assay (11465007001; Sigma Aldrich) according to the manufacturer’s instructions. Mean cell viability was calculated as a percentage of the mean vehicle control. At least three independent experiments in quadruplicate were performed from which the half maximal inhibitory concentration (IC50) was determined using GraphPad Prism version 6.0 (GraphPad Software, California, USA). The selectivity index (SI) was determined by dividing the IC50 of a normal cell line by the IC50 of a cancer cell line.
On the technique in general: Tetrazolium dyes change colour on reduction, which living cells bring about.

For another assay, the system named is SW982 cells. Description: MTT cell viability assay, SW982 synovial sarcoma. Conditions: 48 h. As for the experimental part: as §1, §2
The test system of a further assay is MG-63 cells. Description: MTT cell viability assay, MG-63 osteosarcoma. The following applies: 48 h.
Assay [1] has as its system γH2AX, p-ATM, p-Chk2, p-p38, p21 in RH30 and RD cells. Put plainly: Western blotting and immunocytochemistry of DNA damage and stress pathway proteins. Here is the method: (§3) Cells were lysed at 4 °C in whole-cell lysis buffer (0.125 M Tris-HCl pH 6.8, 4% SDS, 0.2% glycerol, 0.1% β-mercaptoethanol and a pinch of bromophenol blue) and boiled for 10 min. Proteins were resolved by SDS-PAGE (6–15% gels) and transferred to Hybond ECL membranes (Amersham, UK). The membranes were incubated with primary antibodies: rabbit polyclonal antibodies to phospho-histone H2A.X (Ser139) (#2577), phospho-chk2 (Thr68) (#221), phospho-p38 MAPK (Thr180/Tyr182) (#9211), cleaved caspase-3 (Asp175) (#9661), PARP (#9542), caspase-9 (#9502), LC3B (#2775), p38 MAPK (#9212), rabbit monoclonal antibody to cleaved caspase-7 (Asp198) (D6H1) (#8438), mouse monoclonal antibodies to phospho-ATM (Ser1981) (D6H9) (#5883), Cyclin B1 (V152) (#4135), Caspase-8 (1C12) (#9746), SQSTM1/p62 (D5L7G) (#88588) from Cell Signaling Technology (Massachusetts, USA); mouse monoclonal antibody to p53 (DO-1) (sc-126), rabbit polyclonal antibodies to p21 (C-19) (sc-397), cyclin A (H-432) (sc-751), cyclin B1 (H-433)(sc-752), PARP-1 (H-250) (sc-7150) from Santa Cruz Biotechnology (Texas, USA); rabbit polyclonal antibody to p38 MAP kinase (M0800) from Sigma Aldrich. After primary antibody incubation, membranes were incubated with goat anti-rabbit or goat anti-mouse HRP-conjugated secondary antibodies (Bio-Rad Laboratories, California, USA). Antibody reactive proteins were visualized by enhanced chemiluminescence using SuperSignal West Pico Chemiluminescent Substrate Kit (Thermo Fisher Scientific) or WesternBright ECL HRP Substrate Kit (Advansta, California, USA). Densitometry readings were obtained using ImageJ v1.50i[58] and protein expression levels were represented as a ratio of protein of interest/p38 loading control normalized to the vehicletreated control sample where appropriate. All blots are representative of at least two independent repeats.
Cells were plated on glass coverslips and treated with IC50 AJ-5 or vehicle. […] For quantification, mean fluorescence was measured from at least 20 fields of view per treatment condition and pooled from three independent repeats.

Assay [2] concerns LC3II in RH30 and RD cells. Put plainly: LC3II western blotting. The following applies: 0.1 µM or IC50, 24 and 48 h. As for the experimental part: as §3, with “After primary antibody incubation, membranes were incubated with goat anti-rabbit or goat anti-mouse HRP-conjugated secondary antibodies (Bio-Rad Laboratories, California, USA). Antibody reactive proteins were visualized by enhanced chemiluminescence using SuperSignal West Pico Chemiluminescent Substrate Kit (Thermo Fisher Scientific) or WesternBright ECL HRP Substrate Kit (Advansta, California, USA).” left out, “All blots are representative of at least two independent repeats.” left out

Turning to `CC(C)c1cccc(C(C)C)c1[N+]1=Cc2cccc[c]2[Pd-2]1([Cl])[P+](CC[P+](c1ccccc1)(c1ccccc1)[Pd-2]1([Cl])[c]2ccccc2C=[N+]1c1c(C(C)C)cccc1C(C)C)(c1ccccc1)c1ccccc1` (stereo not shown) [AJ-5], the IC50 with SW1353 cells, in the assay on SW982 cells and in the assay on MG-63 cells was < 300 nM each time. Moreover, in assay [1] (0.1 µM or IC50, 24 and 48 h, western blotting), the γH2AX levels entry was “dose-dependent increase”. Also, the p21 levels result in assay [1] (IC50 concentrations, pronounced after 24 h) is “increased”. Also, in assay [1] (western blotting), the “Levels of phosphorylated ATM, CHK2 and p38” value is listed as “increased levels”. Besides, the LC3II protein level result in assay [2] is “induced in both RMS cell lines in a time- and dose-dependent manner”.
